In BindingDB's records for doi:10.1111/cbdd.12243 (Shandong Institute of Pharmaceutical Industry, 2014) one finds IC50 data, which are given here for 10 compounds.

A word on the IC50: it is the concentration that inhibits the measured activity by half.

SMILES strings stand for the structures.

Holding throughout (test): Z-LYTE biochemical assay
Common to all, as to conditions: 25 °C

In experiment [1] the target is Tyrosine-protein kinase ABL1 (Homo sapiens, UniProt P00519). As to the method:
(§1) The reaction was stopped by the addition of 5 µL stop reagent.

Experiment [2] addresses Vascular endothelial growth factor receptor 2 (Homo sapiens, UniProt P35968). As to the method: as §1
In experiment [3] the target is Receptor protein-tyrosine kinase (Homo sapiens, UniProt Q504U8). As to the method:
as §1

Chain of Vascular endothelial growth factor receptor 2 (P35968 whole entry): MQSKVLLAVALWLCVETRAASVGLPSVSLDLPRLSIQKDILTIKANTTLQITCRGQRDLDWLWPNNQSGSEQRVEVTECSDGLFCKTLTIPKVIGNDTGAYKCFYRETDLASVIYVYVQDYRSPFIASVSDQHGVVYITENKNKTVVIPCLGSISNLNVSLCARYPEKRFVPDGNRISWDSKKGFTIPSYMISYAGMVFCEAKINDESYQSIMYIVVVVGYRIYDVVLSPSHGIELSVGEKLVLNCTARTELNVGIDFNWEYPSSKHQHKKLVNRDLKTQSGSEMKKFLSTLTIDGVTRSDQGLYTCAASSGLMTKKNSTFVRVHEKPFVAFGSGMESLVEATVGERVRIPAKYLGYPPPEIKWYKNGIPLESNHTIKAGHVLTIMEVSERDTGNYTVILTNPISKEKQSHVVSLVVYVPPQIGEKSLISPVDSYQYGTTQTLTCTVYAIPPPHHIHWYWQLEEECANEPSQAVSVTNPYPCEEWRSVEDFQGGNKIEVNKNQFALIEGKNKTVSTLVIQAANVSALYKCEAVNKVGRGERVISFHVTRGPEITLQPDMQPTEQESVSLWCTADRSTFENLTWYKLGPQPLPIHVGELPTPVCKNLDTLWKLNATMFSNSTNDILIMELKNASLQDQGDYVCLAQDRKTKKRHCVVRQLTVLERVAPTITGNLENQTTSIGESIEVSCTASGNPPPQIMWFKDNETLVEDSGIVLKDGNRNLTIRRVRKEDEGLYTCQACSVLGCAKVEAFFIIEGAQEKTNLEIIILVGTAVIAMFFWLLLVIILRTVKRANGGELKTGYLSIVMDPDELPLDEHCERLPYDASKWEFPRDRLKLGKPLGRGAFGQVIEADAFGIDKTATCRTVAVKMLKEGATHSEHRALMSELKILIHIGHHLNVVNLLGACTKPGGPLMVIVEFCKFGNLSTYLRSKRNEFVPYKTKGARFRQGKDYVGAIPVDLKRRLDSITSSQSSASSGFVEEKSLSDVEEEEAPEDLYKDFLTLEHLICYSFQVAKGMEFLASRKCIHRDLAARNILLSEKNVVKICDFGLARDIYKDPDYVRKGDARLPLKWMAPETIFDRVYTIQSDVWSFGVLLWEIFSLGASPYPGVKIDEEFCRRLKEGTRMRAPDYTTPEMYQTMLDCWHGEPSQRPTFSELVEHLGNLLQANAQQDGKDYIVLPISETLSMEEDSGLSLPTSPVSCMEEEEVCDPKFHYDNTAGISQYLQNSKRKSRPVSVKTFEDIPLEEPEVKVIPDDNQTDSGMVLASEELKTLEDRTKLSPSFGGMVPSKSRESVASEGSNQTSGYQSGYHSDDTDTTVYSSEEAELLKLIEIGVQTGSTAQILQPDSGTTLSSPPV
Chain of Tyrosine-protein kinase ABL1 (P00519 whole entry): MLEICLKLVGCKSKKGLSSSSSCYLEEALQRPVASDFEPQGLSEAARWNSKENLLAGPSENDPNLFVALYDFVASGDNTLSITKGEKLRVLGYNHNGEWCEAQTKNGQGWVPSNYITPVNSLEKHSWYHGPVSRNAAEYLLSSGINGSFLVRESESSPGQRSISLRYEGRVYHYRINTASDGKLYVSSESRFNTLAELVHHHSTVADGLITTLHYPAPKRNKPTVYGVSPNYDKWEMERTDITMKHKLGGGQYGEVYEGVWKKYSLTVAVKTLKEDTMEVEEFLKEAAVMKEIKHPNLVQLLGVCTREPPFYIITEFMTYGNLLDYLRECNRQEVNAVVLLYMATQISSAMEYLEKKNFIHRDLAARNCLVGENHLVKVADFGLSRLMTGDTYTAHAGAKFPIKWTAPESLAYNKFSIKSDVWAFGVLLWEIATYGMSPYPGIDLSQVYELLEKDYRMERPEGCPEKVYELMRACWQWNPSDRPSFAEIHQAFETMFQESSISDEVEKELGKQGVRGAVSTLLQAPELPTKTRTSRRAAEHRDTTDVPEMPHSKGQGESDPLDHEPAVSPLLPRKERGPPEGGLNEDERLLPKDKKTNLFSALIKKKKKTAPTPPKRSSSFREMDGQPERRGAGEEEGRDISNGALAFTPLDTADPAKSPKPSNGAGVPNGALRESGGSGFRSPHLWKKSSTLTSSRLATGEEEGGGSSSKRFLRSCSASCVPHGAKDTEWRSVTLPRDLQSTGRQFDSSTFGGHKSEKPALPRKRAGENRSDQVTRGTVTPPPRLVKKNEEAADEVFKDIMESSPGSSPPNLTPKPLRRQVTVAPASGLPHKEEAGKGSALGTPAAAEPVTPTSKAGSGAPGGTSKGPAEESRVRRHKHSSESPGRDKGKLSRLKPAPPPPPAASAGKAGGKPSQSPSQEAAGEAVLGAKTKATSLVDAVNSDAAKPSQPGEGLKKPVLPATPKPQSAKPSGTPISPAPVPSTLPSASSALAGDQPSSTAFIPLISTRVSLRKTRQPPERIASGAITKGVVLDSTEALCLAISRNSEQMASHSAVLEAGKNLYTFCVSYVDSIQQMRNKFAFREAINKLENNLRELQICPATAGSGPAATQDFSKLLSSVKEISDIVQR
Chain of Receptor protein-tyrosine kinase (Q504U8 whole entry): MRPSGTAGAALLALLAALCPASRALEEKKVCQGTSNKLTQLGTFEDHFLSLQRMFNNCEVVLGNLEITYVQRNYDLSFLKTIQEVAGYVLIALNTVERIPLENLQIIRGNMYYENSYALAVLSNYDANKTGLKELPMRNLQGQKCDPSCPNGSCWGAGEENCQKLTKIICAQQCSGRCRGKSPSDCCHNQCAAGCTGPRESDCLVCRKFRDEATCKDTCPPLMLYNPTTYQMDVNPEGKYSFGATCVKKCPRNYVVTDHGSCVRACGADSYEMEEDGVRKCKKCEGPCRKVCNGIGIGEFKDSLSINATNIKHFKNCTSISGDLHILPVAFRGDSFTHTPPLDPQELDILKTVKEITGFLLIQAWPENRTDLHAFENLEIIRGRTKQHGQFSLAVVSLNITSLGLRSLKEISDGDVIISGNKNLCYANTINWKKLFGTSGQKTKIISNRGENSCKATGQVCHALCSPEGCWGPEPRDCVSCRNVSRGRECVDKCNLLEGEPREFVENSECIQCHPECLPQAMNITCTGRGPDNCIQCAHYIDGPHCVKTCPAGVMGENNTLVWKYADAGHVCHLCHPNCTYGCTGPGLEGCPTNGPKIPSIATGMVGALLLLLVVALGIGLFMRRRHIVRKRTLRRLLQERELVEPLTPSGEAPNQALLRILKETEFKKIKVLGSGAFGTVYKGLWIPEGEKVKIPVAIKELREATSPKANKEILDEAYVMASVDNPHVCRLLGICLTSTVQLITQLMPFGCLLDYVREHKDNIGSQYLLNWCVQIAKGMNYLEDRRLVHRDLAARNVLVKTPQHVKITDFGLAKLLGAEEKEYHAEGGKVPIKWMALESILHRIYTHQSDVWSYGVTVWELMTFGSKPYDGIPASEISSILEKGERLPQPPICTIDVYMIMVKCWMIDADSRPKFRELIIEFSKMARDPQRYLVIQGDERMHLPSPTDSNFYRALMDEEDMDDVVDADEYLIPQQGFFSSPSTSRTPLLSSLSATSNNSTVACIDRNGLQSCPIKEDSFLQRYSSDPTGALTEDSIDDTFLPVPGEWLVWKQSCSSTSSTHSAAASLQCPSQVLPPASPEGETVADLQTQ

As to `Cc1cc(C)nc(NS(=O)(=O)c2ccc(Nc3nccc(N(C)c4ccc5c(C)n(C)nc5c4)n3)cc2)n1` [4-((4-((2,3-dimethyl-2H-indazole-6-yl)(methyl)amino)pyrimidin-2-yl)amino)-N-(4,6-dimethylpyrimidin-2-yl)benzenesulfonamide (P2e)], the IC50 in experiment [1] stood at 22 nM; in experiment [2] it was 12 nM.

For the compound `Cc1ccnc(NS(=O)(=O)c2ccc(Nc3nccc(N(C)c4ccc5c(C)n(C)nc5c4)n3)cc2)n1` [4-((4-((2,3-dimethyl-2H-indazole-6-yl)(methyl)amino)pyrimidin-2-yl)amino)-N-(4-methylpyrimidin-2-yl)benzenesulfonamide (P2d)], the IC50 in experiment [1] was determined as 62 nM; in experiment [2] it was 25 nM.

On to `Cc1cc(NS(=O)(=O)c2ccc(Nc3nccc(N(C)c4ccc5c(C)n(C)nc5c4)n3)cc2)no1` [4-((4-((2,3-dimethyl-2H-indazole-6-yl)(methyl)amino)pyrimidin-2-yl)amino)-N-(5-methylisoxazol-3-yl)benzenesulfonamide (P2f)], for which the IC50 in experiment [1] came out at 320 nM; in experiment [2], 650 nM.

Consider `Cc1c2ccc(N(C)c3ccnc(Nc4ccc(S(=O)(=O)Nc5ncccn5)cc4)n3)cc2nn1C` [4-((4-((2,3-dimethyl-2H-indazole-6-yl)(methyl)amino)pyrimidin-2-yl)amino)-N-(pyrimidin-2-yl) benzenesulfonamide (P2c)], for which the IC50 in experiment [1] amounted to 120 nM; in experiment [2], 29 nM.

For `Cc1cc(C)nc(NS(=O)(=O)c2ccc(Nc3nccc(Nc4ccc5c(C)n(C)nc5c4)n3)cc2)n1` [4-((4-((2,3-dimethyl-2H-indazole-6-yl)amino)pyrimidin-2-yl)amino)-N-(4,6-dimethylpyrimidin-2-yl)benzenesulfonamide (P1e)], the half-maximal inhibitory concentration (IC50) in experiment [1] amounted to 360 nM; in experiment [2] it was 120 nM.

In the case of `Cc1ccnc(NS(=O)(=O)c2ccc(Nc3nccc(Nc4ccc5c(C)n(C)nc5c4)n3)cc2)n1` [4-((4-((2,3-dimethyl-2H-indazole-6-yl)amino)pyrimidin-2-yl)amino)-N-(4-methylpyrimidin-2-yl) benzenesulfonamide (P1d)], the IC50 in experiment [1] is 280 nM; in experiment [2], 160 nM.

`Cc1cc(NS(=O)(=O)c2ccc(Nc3nccc(Nc4ccc5c(C)n(C)nc5c4)n3)cc2)no1` [4-((4-((2,3-dimethyl-2H-indazole-6-yl)amino)pyrimidin-2-yl)amino)-N-(5-methylisoxazol-3-yl) benzenesulfonamide (P1f)]: the IC50 turned out to be 2180 nM in experiment [1] and 1630 nM in experiment [2].

Turning to `Cc1c2ccc(Nc3ccnc(Nc4ccc(S(=O)(=O)Nc5ncccn5)cc4)n3)cc2nn1C` [4-((4-((2,3-dimethyl-2H-indazole-6-yl)amino)pyrimidin-2-yl)amino)-N-(pyrimidin-2-yl) benzenesulfonamide (P1c)], the IC50 was found to be 460 nM in experiment [1] and 34 nM in experiment [2].

Consider `Cc1c2ccc(N(C)c3ccnc(Nc4ccc(S(=O)(=O)NC(=N)N)cc4)n3)cc2nn1C` [N-carbamimidoyl-4-((4-((2,3-dimethyl-2H-indazole-6-yl)(methyl)amino)pyrimidin-2-yl)amino) benzenesulfonamide (P2g)], for which the IC50 came out at 1370 nM in experiment [3], 360 nM in experiment [1] and 720 nM in experiment [2].

For the compound `Cc1c2ccc(Nc3ccnc(Nc4ccc(S(=O)(=O)NC(=N)N)cc4)n3)cc2nn1C` [N-carbamimidoyl-4-((4-((2,3-dimethyl-2H-indazole-6-yl)amino)pyrimidin-2-yl)amino) benzenesulfonamide (P1g)], the IC50 in experiment [1] is 930 nM; in experiment [2], 1340 nM.
